The subject of assay [1] is Wnt activity (Wnt-responsive SP5 promoter luciferase reporter in SW480 cells). Nature of the assay: Wnt activity reporter assay: SW480 cells with SP5 promoter-driven firefly luciferase. The format is cell-based. As to conditions: Homo sapiens, 24 h after compound addition, read-out: Wnt inhibition. An excerpt: The above synthesized compounds were screened using the assay procedure for Wnt activity described below.
Reporter cell lines were generated by stably transducing cells of cancer cell lines (e.g., colon cancer) with a lentiviral construct that include a Wnt-responsive promoter driving expression of the firefly luciferase gene.
Lentiviral constructs were made in which the SP5 promoter, a promoter having eight TCF/LEF binding sites derived from the SP5 promoter, was linked upstream of the firefly luciferase gene. The lentiviral constructs included a hygromycin resistance gene as a selectable marker. The SP5 promoter construct was used to transduce SW480 cells, a colon cancer cell line having a mutated APC gene that generates a truncated APC protein, leading to de-regulated accumulation of β-catenin.
Cultured SW480 cells bearing a reporter construct were distributed at approximately 10,000 cells per well into 384 well multiwell plates. Compounds were then added to the wells in half-log dilutions using a three micromolar top concentration. A series of control wells for each cell type received only buffer and compound solvent. Twenty-four hours after the addition of compound, reporter activity for luciferases was assayed, for example, by addition of the BrightGlo luminescence reagent (Promega) and the Victor3 plate reader (Perkin Elmer). Readings were normalized to DMSO only treated cells, and normalized activities were then used for the IC50 calculations.
(In general: Reporter assays use an easily measured gene product as a stand-in for the process of interest.)

Another assay concerns the target DYRK1A (Homo sapiens (Human), UniProt Q13627). Nature of the assay: DYRK1A activity Tau assay: pSer396 Tau in SH-SY5Y cells by ELISA / western blot. The format is cell-based. As to conditions: overnight (16-18 h) exposure. (ELISA stands for enzyme-linked immunosorbent assay.)

Drawing on patent US10669240B2, “5-substituted indazole-3-carboxamides and preparation and use thereof” (Samumed, LLC, priority 2014, dated 2020), this text covers IC50 and EC50 for 31 compounds.

Structures are written as SMILES.

One may read the EC50 as the concentration giving half of the maximal effect. A high value points to a less potent agent. In the case of `O=C(NC1CC1)c1n[nH]c2ccc(-c3cc(F)cc(CN4CCCCC4)c3)cc12` [Compound 11, N-Cyclopropyl-5-(3-fluoro-5-(piperidin-1-ylmethyl)phenyl)-1H-indazole-3-carboxamide], the IC50 in assay [1] was determined as 7950 nM. The same compound displayed an EC50 at DYRK1A of 36 nM.

`O=C(NCCN1CCOCC1)c1n[nH]c2ccc(-c3cccnc3)cc12` [Compound 1267, N-(2-Morpholinoethyl)-5-(pyridin-3-yl)-1H-indazole-3-carboxamide]: the IC50 in assay [1] worked out at 1500 nM. In addition, the response on DYRK1A was half-maximal at 5 nM (EC50).

Take `O=C(NC1CCNCC1)c1n[nH]c2ccc(-c3cccc(F)c3F)cc12` [Compound 254, 5-(2,3-Difluorophenyl)-N-(piperidin-4-yl)-1H-indazole-3-carboxamide]: in assay [1], the IC50 amounted to 7900 nM. The compound further displayed an EC50 on DYRK1A of 66 nM.

Turning to `O=C(NC1CCN(CCF)CC1)c1n[nH]c2ccc(-c3cccc(F)c3F)cc12` [Compound 1160, 5-(2,3-Difluorophenyl)-N-(1-(2-fluoroethyl)piperidin-4-yl)-1H-indazole-3-carboxamide], the IC50 in assay [1] was 1100 nM. This compound displayed an EC50 at DYRK1A of 40 nM.

For the compound `O=C(Nc1ccc(CN2CCCC2)cc1)c1n[nH]c2ccc(-c3cncnc3)cc12` [Compound 1328, 5-(Pyrimidin-5-yl)-N-(4-(pyrrolidin-1-ylmethyl)phenyl)-1H-indazole-3-carboxamide], the IC50 in assay [1] came out at 3700 nM. The compound also returned an EC50 at DYRK1A of 4 nM.

For `Cc1cc2[nH]nc(C(=O)Nc3cccnc3)c2cc1-c1cccnc1` [Compound 44, 6-Methyl-N,5-di(pyridin-3-yl)-1H-indazole-3-carboxamide], the IC50 in assay [1] worked out at 6120 nM. In addition, on DYRK1A, the midpoint of the response, the EC50, lay at 23 nM.

`O=C(NCCN1CCCC1)c1n[nH]c2ccc(-c3cccc(F)c3F)cc12` [Compound 1166, 5-(2,3-Difluorophenyl)-N-(2-(pyrrolidin-1-yl)ethyl)-1H-indazole-3-carboxamide]: the IC50 in assay [1] turned out to be 2400 nM. The compound also gave an EC50 on DYRK1A of 79 nM.

In the case of `O=C(NC1CCN(CC(F)F)CC1)c1n[nH]c2ccc(-c3cncc(F)c3)cc12` [Compound 1298, N-(1-(2,2-Difluoroethyl)piperidin-4-yl)-5-(5-fluoropyridin-3-yl)-1H-indazole-3-carboxamide], the IC50 in assay [1] was found to be 1200 nM. Also, at DYRK1A, the EC50 amounted to 28 nM.

As for `COc1ccc(NC(=O)c2n[nH]c3ccc(-c4cncc(N5CC(N)C5)n4)cc23)cn1` [Compound 1334, 5-(6-(3-Aminoazetidin-1-yl)pyrazin-2-yl)-N-(6-methoxypyridin-3-yl)-1H-indazole-3-carboxamide], the IC50 in assay [1] is 1500 nM. Also, at DYRK1A, the response was half-maximal at 2 nM (EC50).

Turning to `O=C(NC1(c2ccccc2)CC1)c1n[nH]c2ccc(-c3cncc(CN4CCC(F)(F)C4)c3)cc12` [Compound 35, 5-(5-((3,3-Difluoropyrrolidin-1-yl)methyl)pyridin-3-yl)-N-(1-phenylcyclopropyl)-1H-indazole-3-carboxamide], the IC50 in assay [1] was 6390 nM. For the same compound, a half-maximal effect on DYRK1A (EC50) was put at 85 nM.

With `Cc1ccc(-c2ccc3[nH]nc(C(=O)NCCCOC(C)C)c3c2)cn1` [Compound 1262, N-(3-Isopropoxypropyl)-5-(6-methylpyridin-3-yl)-1H-indazole-3-carboxamide], the IC50 in assay [1] was found to be 1800 nM. The EC50 on DYRK1A was found to be 60 nM.

On to `CN1CCC2(CC1)CC(NC(=O)c1n[nH]c3ccc(-c4cccc(F)c4F)cc13)C2` [Compound 1278, 5-(2,3-Difluorophenyl)-N-(7-methyl-7-azaspiro[3.5]nonan-2-yl)-1H-indazole-3-carboxamide], for which the IC50 in assay [1] amounted to 5500 nM. In addition, a half-maximal response at DYRK1A (EC50) required 14 nM.

Consider `O=C(Nc1cccnc1)c1n[nH]c2ccc(-c3cccc(F)c3F)cc12` [Compound 96, 5-(2,3-Difluorophenyl)-N-(pyridin-3-yl)-1H-indazole-3-carboxamide], for which the IC50 in assay [1] is 4670 nM. In addition, the EC50 on DYRK1A was found to be 134 nM.

For the compound `CC(C)(C)CN1CCC(NC(=O)c2n[nH]c3cc(F)c(-c4cccnc4)cc23)CC1` [Compound 1342, 6-Fluoro-N-(1-neopentylpiperidin-4-yl)-5-(pyridin-3-yl)-1H-indazole-3-carboxamide], the IC50 in assay [1] amounted to 1400 nM. For the same compound, at DYRK1A, the EC50 was found to be 13 nM.

Take `CN1CCC(NC(=O)c2n[nH]c3ccc(-c4cnccc4C(F)(F)F)cc23)CC1` [Compound 1340, N-(1-Methylpiperidin-4-yl)-5-(4-(trifluoromethyl)pyridin-3-yl)-1H-indazole-3-carboxamide]: the IC50 in assay [1] is 1800 nM. Besides, at DYRK1A, it took 2500 nM to reach a half-maximal effect (EC50).

For the compound `N[C@H]1CC[C@@H](NC(=O)c2n[nH]c3ccc(-c4cccnc4)cc23)CC1` [Compound 1285, N-((1s,4s)-4-Aminocyclohexyl)-5-(pyridin-3-yl)-1H-indazole-3-carboxamide], in assay [1], the IC50 is greater than 10000 nM. This compound yielded an EC50 on DYRK1A of 35 nM.

As to `CN(C)[C@H]1CC[C@H](NC(=O)c2n[nH]c3ccc(-c4cccnc4)cc23)CC1` [Compound 1288, N-((1r,4r)-4-(Dimethylamino)cyclohexyl)-5-(pyridin-3-yl)-1H-indazole-3-carboxamide], the IC50 in assay [1] is 1370 nM. The EC50 at DYRK1A is 1 nM.

Take `O=C(Nc1ccc(CN2CCCC2)cc1)c1n[nH]c2ccc(-c3cncc(Cl)c3)cc12` [Compound 1330, 5-(5-Chloropyridin-3-yl)-N-(4-(pyrrolidin-1-ylmethyl)phenyl)-1H-indazole-3-carboxamide]: the IC50 in assay [1] stood at 5500 nM. This compound also gave an EC50 on DYRK1A of 3 nM.

Turning to `NC(=O)c1n[nH]c2ccc(-c3cncc(CN4CCCCC4)c3)cc12` [Compound 89, 5-(5-(Piperidin-1-ylmethyl)pyridin-3-yl)-1H-indazole-3-carboxamide], the IC50 in assay [1] came to 1960 nM. At DYRK1A, this compound showed an EC50 of 6 nM.

In the case of `O=C(NC1CCN(C2COC2)CC1)c1n[nH]c2ccc(-c3cccc(F)c3F)cc12` [Compound 1164, 5-(2,3-Difluorophenyl)-N-(1-(oxetan-3-yl)piperidin-4-yl)-1H-indazole-3-carboxamide], the IC50 in assay [1] was 1400 nM. Further, it took 49 nM to reach a half-maximal effect on DYRK1A (EC50).

In the case of `O=C(NC1CCC1)c1n[nH]c2ccc(-c3cccnc3)cc12` [Compound 5, N-Cyclobutyl-5-(pyridin-3-yl)-1H-indazole-3-carboxamide], in assay [1], the IC50 was found to be 11900 nM. The midpoint of the response at DYRK1A, the EC50, lay at 18 nM.

In the case of `O=C(NC1(c2ccccc2)CC1)c1n[nH]c2ccc(-c3cncc(CN4CCC4)c3)cc12` [Compound 33, 5-(5-(Azetidin-1-ylmethyl)pyridin-3-yl)-N-(1-phenylcyclopropyl)-1H-indazole-3-carboxamide], the IC50 in assay [1] is 6700 nM. This compound also came in with an EC50 at DYRK1A of 63 nM.

For the compound `CN1CCC2(CC1)CC(NC(=O)c1n[nH]c3ccc(-c4cncc(Cl)c4)cc13)C2` [Compound 1276, 5-(5-Chloropyridin-3-yl)-N-(7-methyl-7-azaspiro[3.5]nonan-2-yl)-1H-indazole-3-carboxamide], the IC50 in assay [1] is 5200 nM. This compound came in with an EC50 on DYRK1A of 7 nM.

Regarding `CN1CCC(NC(=O)c2n[nH]c3ccc(-c4ccc(F)c(F)c4)cc23)CC1` [Compound 19, 5-(3,4-Difluorophenyl)-N-(1-methylpiperidin-4-yl)-1H-indazole-3-carboxamide], the IC50 in assay [1] was found to be 6800 nM. At DYRK1A, this compound had an EC50 of 848 nM.

`O=C(NC1CC1)c1n[nH]c2ccc(-c3cccnc3)cc12` [Compound 6, N-Cyclopropyl-5-(pyridin-3-yl)-1H-indazole-3-carboxamide]: the IC50 in assay [1] is 5530 nM. Besides, the EC50 at DYRK1A is 22 nM.

For `O=C(N[C@@H]1C[C@@H]1c1ccccc1)c1n[nH]c2ccc(-c3cncc(CN4CCCCC4)c3)cc12` [Compound 39, N-((1R,2R)-2-Phenylcyclopropyl)-5-(5-(piperidin-1-ylmethyl)pyridin-3-yl)-1H-indazole-3-carboxamide], the IC50 in assay [1] came out at 490 nM. In addition, the EC50 at DYRK1A was determined as 1 nM.

As to `N[C@H]1CC[C@H](NC(=O)c2n[nH]c3ccc(-c4cccnc4)cc23)CC1` [Compound 1286, N-((1r,4r)-4-Aminocyclohexyl)-5-(pyridin-3-yl)-1H-indazole-3-carboxamide], the IC50 in assay [1] stood at 3700 nM. Further, the EC50 at DYRK1A stood at 2 nM.

For `O=C(Nc1cc(CN2CCCC2)ccc1Cl)c1n[nH]c2ccc(-c3cccnc3)cc12` [Compound 1333, N-(2-Chloro-5-(pyrrolidin-1-ylmethyl)phenyl)-5-(pyridin-3-yl)-1H-indazole-3-carboxamide], the IC50 in assay [1] turned out to be 5100 nM. This compound registered an EC50 on DYRK1A of 9 nM.

Turning to `O=C(Nc1cccc2cccnc12)c1n[nH]c2ccc(-c3cncc(CN4CCCCC4)c3)cc12` [Compound 81, 5-(5-(Piperidin-1-ylmethyl)pyridin-3-yl)-N-(quinolin-8-yl)-1H-indazole-3-carboxamide], the IC50 in assay [1] amounted to 7660 nM. This compound gave an EC50 at DYRK1A of 312 nM.

For the compound `CC(C)(C)N1CCC(NC(=O)c2n[nH]c3ccc(-c4cccnc4)cc23)CC1` [Compound 291, N-(1-(tert-Butyl)piperidin-4-yl)-5-(pyridin-3-yl)-1H-indazole-3-carboxamide], in assay [1], the IC50 stood at 1010 nM. On DYRK1A, this compound returned an EC50 of 21 nM.

As to `O=C(NC1CCNCC1)c1n[nH]c2ccc(-c3cccnc3)cc12` [Compound 3, N-(Piperidin-4-yl)-5-(pyridin-3-yl)-1H-indazole-3-carboxamide], the IC50 in assay [1] was 6440 nM. For the same compound, the EC50 on DYRK1A amounted to 28 nM.
